Assay results from US12649790B2, “Proteins that bind SP17 including fully-human anti-SP17 antibodies” (Medicovestor, Inc., priority 2023, dated 2026).
“Also recorded” adds a separate entry of the source. *1 amine or outer side, *2 acyl side, *3 side chain or, on linkers, in order; H or OH if unused. Where a SMILES comes first, the peptide text is derived from it. [ ]: non-standard residue; d: D form. The star is where a group is joined. Exatecan = CC[C@@]1(O)C(=O)OCc2c1cc1n(c2=O)Cc2c-1nc1cc(F)c(C)c3c1c2[C@@H](N*)CC3; Hexanoyl(6-maleimido) = O=C1C=CC(=O)N1CCCCCC(=O)*; NHCH2OCH2CO = O=C(COCN[*:1])[*:2]

T1: mouse surface Sp17 protein expressed on the mouse ovarian cancer cell line ID8 (Mus musculus, UniProt Q62252)
T1 construct: endogenous in cells; host or cells: ID8 mouse ovarian cancer cell line
T1 sequence (Q62252 1-149): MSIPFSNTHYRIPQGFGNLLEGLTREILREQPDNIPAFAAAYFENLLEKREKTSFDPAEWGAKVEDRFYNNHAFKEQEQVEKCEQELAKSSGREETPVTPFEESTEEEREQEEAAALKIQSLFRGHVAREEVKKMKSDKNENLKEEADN

T2: recombinant 6His-Sp17 protein (Homo sapiens, UniProt Q15506)
T2 sequence (Q15506 1-151): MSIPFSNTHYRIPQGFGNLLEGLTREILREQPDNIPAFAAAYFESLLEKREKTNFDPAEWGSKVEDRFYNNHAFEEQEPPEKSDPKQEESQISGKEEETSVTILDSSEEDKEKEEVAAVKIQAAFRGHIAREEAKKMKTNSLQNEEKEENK

T3: Sp17 protein (Homo sapiens, UniProt Q15506)
T3 sequence (Q15506 1-151): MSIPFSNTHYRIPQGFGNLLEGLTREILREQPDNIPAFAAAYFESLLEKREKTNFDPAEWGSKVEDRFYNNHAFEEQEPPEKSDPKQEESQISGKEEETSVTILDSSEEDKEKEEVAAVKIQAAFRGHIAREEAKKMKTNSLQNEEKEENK


Tests used:
ID8 cells = test: Cytotoxicity assay against ID8 cells; format: cell-based, mouse; details: 3 days
Protocol: […] The cells were then treated with various concentrations of either the SP17-AB2 antibody, the SP17-AB2-DXD immunoconjugate, hIgG4, or deruxtecan alone. The cells were incubated for 3 additional days, and then cytotoxicity was measured.

SK-OV-3 cells = test: Cytotoxicity assay (luminescence) against SK-OV-3 cells; details: 5 or 6 days
Protocol: SK-OV-3 cells were seeded at 1000, 2000, or 3000 cells per well and incubated overnight in advance of a cytotoxicity assay. […] The SK-OV-3 cells were treated with various concentrations of the SP17-AB2 antibody, the SP17-AB2-DXD immunoconjugate, a control human IgG4 antibody (hIgG4), or deruxtecan alone (DXD). The cells were incubated for 5 or 6 additional days, and cytotoxicity was then measured using a luminescence assay and EnVision™ plate reader (PerkinElmer, Massachusetts, United States).

[1] = target: T1, mouse surface Sp17 protein expressed on the mouse ovarian cancer cell line ID8; test: Flow cytometry of ID8 cells labeled with chAB2 and anti-mouse FITC antibody; format: cell-based; details: relative to anti-mouse FITC antibody alone
Protocol: FIG. 4 consists of three panels. The left panel is a graph that depicts flow cytometry results for ID8 cells incubated with an anti-mouse fluorescein isothiocyanate (FITC) antibody, but without a primary antibody. The middle panel is a graph that depicts flow cytometry results for ID8 cells labeled with the anti-Sp17 antibody chAB2 and the anti-mouse FITC antibody.
(§1) The nucleotide sequences encoding the VH and VL regions of Example 1 were cloned into a mouse IgG2a heavy chain gene and a mouse kappa light chain gene, respectively, and expressed in CHO—S cells to produce a mouse-human chimeric antibody, which was named chAB2. Successful generation of the antibody was confirmed by SDS-PAGE and western blotting using anti-mouse heavy and light chain antibodies and recombinant Sp17 protein (FIGS. 2 & 3).

[2] = system: normal tissue microarray of 33 normal tissues; test: Immunohistochemistry on a normal tissue microarray (specificity); details: 2-3 human donors per tissue
Protocol: The specificity of the chAB2 antibody for Sp17 was determined with immunohistochemistry on a normal tissue microarray, which consisted of 33 normal tissues obtained from 2-3 human donors per tissue. The normal tissues included brain, eye, adrenal gland, hypophyseal, thyroid, parathyroid, tonsil, thymus, spleen, heart, lung, larynx, esophagus, stomach, small intestine, colon, liver, pancreas, salivary gland, kidney, bone, skeletal, skin, peripheral nerve, mesothelial, breast, ovary, endometrium, cervix, testis, and prostate.

[3] = target: T2, recombinant 6His-Sp17 protein; test: Surface plasmon resonance (Biacore T200) of chAB2 binding to recombinant 6His-Sp17; details: SPR
From the text: The lines correspond, from highest to lowest, to fitted cycles for 300 nanomolar, 100 nanomolar, 50 nanomolar, 25 nanomolar, 12.5 nanomolar, and 6.25 nanomolar concentrations of 6His-Sp17.
as §1

Sp17 protein = target: T3, Sp17 protein; test: Western blot detection of Sp17 protein; format: binding; details: SDS-PAGE of Sp17 protein
From the text: as §1
The VH and VL nucleotide sequences of Example 1 were cloned into a human IgG4 heavy chain gene and a human kappa light chain gene, respectively. A Ser228Pro mutation was introduced in the heavy chain to reduce non-specific Fc receptor gamma binding. The resultant antibody was named SP17-AB2. Successful cloning was confirmed by sequence analysis. The amino acid sequences of the heavy chain and light chain are shown in Table 4, and the Ser228Pro mutation is underlined in SEQ ID NO: 11.

[4] = SK-OV-3 cells at 1000 cells/well
[5] = SK-OV-3 cells at 2000 cells/well
[6] = SK-OV-3 cells at 3000 cells/well

association rate constant (ka) for chAB2 to Sp17 ([3]; 6.25-300 nanomolar 6His-Sp17) | Kd ([3]; Biacore T200, read-out: dissociation constant (KD)) [nM] | binding/detection of Sp17 protein by western blot (Sp17 protein) | Molecule | Max Cytotoxicity (ID8 cells; ID8 cells at 250 cells/well) [%] | Max Cytotoxicity (ID8 cells; ID8 cells at 500 cells/well) [%] | IC50 (SK-OV-3 cells; [4]) [nM] | Max Cytotoxicity (SK-OV-3 cells; [4]) [%] | IC50 (SK-OV-3 cells; [5]) [nM] | Max Cytotoxicity (SK-OV-3 cells; [5]) [%] | IC50 (SK-OV-3 cells; [6]) [nM] | Max Cytotoxicity (SK-OV-3 cells; [6]) [%] | reactivity to surface Sp17 on ID8 cells by flow cytometry (mean fluorescent intensity) [1] | binding to normal human tissues / cross-reactivity by immunohistochemistry [2]
 |  |  | CC[C@@]1(O)C(=O)OCc2c1cc1n(c2=O)Cc2c-1nc1cc(F)c(C)c3c1c2[C@@H](NC(=O)COCNC(=O)CNC(=O)[C@H](Cc1ccccc1)NC(=O)CNC(=O)CNC(=O)CCCCCN1C(=O)C=CC1=O)CC3 [deruxtecan] ({Hexanoyl(6-maleimido)}-GGFG[NHCH2OCH2CO]-Exatecan) | 94 | 93 | 0.75 | 98 | 1.1 | 97 | 1.2 | 97 |  | 
62,600 per mole per second | ~2 | Sp17 protein was detected | chAB2: mouse-human chimeric anti-Sp17 monoclonal antibody: human VH/VL (SEQ ID NO: 3, 4) in mouse IgG2a heavy chain and mouse kappa light chain (antibody, V domains shown, mouse IgG2a and kappa constant regions) VH: QVQLQQSGAEVKKPGSSVKVSCKASGGTFSSYAISWVRQAPGQGLEWMGRIIPILGIANYAQKFQGRVTITADKSTSTAYMELSSLRSEDTAVYYCARPSEEVVAAYGAFDIWGQGTTVTVSS VL: EIVLTQSPLSLPVRPGEPASISCRASQSLLRSDGFNYLDWYLQKPGQSPQLLVYLGSNRASGVPDRFSGSGSGTDFTLKISRVEAEDVGVYYCMQAVQTPYIFGQGTKLEIK |  |  |  |  |  |  |  |  | reactive to mouse surface Sp17 protein; also recorded: increased mean fluorescent intensity | bound to testis and did not bind to normal tissues; also recorded: lack detectable cross-reactivity
